Experimental data published in patent US20140163061A1, “Methods For Reducing Blood Pressure” (FibroGen, Inc., priority 2008, published 2014).

Tests used:
[1] = tested on: Nx rats (5/6 nephrectomy, hypertensive chronic kidney disease); test: Rat remnant kidney model (5/6 nephrectomy) of CKD, tail-cuff systolic blood pressure, Example 3; format: in vivo; conditions: mean±SEM, p<0.05 vs vehicle-treated Nx rats (195.7±24.4)
Procedure: (§1) A characteristic pathophysiology found in the uremic chronic kidney disease (CKD) population is hypertension. […] (Priyadarshi et al. (2002) Kidney Int 61:542-546; Coleman et al. (2006) Proc Natl Acad Sci USA 103:5965-5970.) The surgical procedure used to generate the rat remnant kidney was performed according to modification of the procedure described by Priyadarshi et al. (supra) or according to modification of the procedure described by Tanaka et al. (2005, Lab Invest 85:1292-1307). Separate studies used either male Sprague Dawley rats (280-300 g) or female Wistar rats (220-250 g).
Animals were divided into two groups of which one group (sham) underwent sham surgery and the other group (Nx) was subjected to 5/6 nephrectomy as follows. […] Animal body weight and mortality were closely monitored.
Starting 35 days after surgery, Nx and sham animals were randomly divided into groups and treated with either vehicle or compound A. Compound was dosed three times per week by oral gavage at 20 or 40 mg/kg compound per dose. Blood pressure (BP) was measured using a Kent XBP1000 system (Kent Scientific Corp., Torrington, Conn.) or a Muromachi tail-cuff blood pressure system (Muromachi Kikai Co., Ltd., Tokyo, Japan), both having volume/pressure recording technology and used according to the manufacturer's instruction. […]

[2] = tested on: Nx rats (5/6 nephrectomy, hypertensive chronic kidney disease); test: Nx rats treated with various HIF prolyl hydroxylase inhibitors, change in systolic blood pressure after four weeks, Example 4; format: in vivo, rat; conditions: 40 mg/kg oral
Procedure: as §1
Animals were divided into two groups of which one group (sham) underwent sham surgery and the other group (Nx) was subjected to 5/6 nephrectomy as follows. Animals were anesthetized under isoflurane, and a midline abdominal incision was made, followed by blunt dissection of the renal pedicles. Two or three branches of the left renal artery were ligated to infarct two thirds of the left kidney, while the right kidney underwent simultaneous nephrectomy. The infarct was verified by observing the change in kidney color. Animal body temperature was maintained constant, and warm (˜37° C.) saline (1.0 mL) was administered directly into the abdomen. Thereafter, the incision was sutured and the animal was allowed to recover and have free access to regular food and water. Animal body weight and mortality were closely monitored.
Starting 35 days after surgery, Nx and sham animals were randomly divided into groups and treated with either vehicle or compound A. Compound was dosed three times per week by oral gavage at 20 or 40 mg/kg compound per dose. Blood pressure (BP) was measured using a Kent XBP1000 system (Kent Scientific Corp., Torrington, Conn.) or a Muromachi tail-cuff blood pressure system (Muromachi Kikai Co., Ltd., Tokyo, Japan), both having volume/pressure recording technology and used according to the manufacturer's instruction. Rats were slightly warmed under a lamp and conditioned carefully before the measurement. BP was recorded as the mean value of 3 separate measurements obtained at each session and reported herein as mean±SEM. Results are compared using 1-way analysis of variance (ANOVA) and Student-Newman-Keuls method (SigmaStat, SPSS Science, Chicago, Ill.).
In another series of experiments, rats subjected to 5/6 nephrectomy were treated 35 days after surgery according to the dosing schedule described in Example 3 above with a HIF prolyl hydroxylase inhibitor. Individual compound selected from the group consisting of compounds A and C-K were administered by oral gavage at 8, 20, 30, or 40 mg/kg (see Table 1 and Table 2). Systolic blood pressure was recorded at day 35 (baseline) and again immediately following the last dose of compound. Table 1 and Table 2 show changes in systolic blood pressure following four weeks of oral administration of various compounds of the present invention to Nx rats.

[3] = tested on: human subjects with chronic kidney disease; test: Blood pressure in human CKD subjects over a four week period, weekly readings, Example 6; format: in vivo
Procedure: Hypertension is a common condition in patients with chronic kidney disease. (Agarwal et al. (2005) Hypertension 46:514-520.) The effect of a compound of the present invention on blood pressure in anemic and non-anemic human subjects with advanced stage chronic kidney disease was examined. All study subjects had chronic kidney disease (CKD), defined as having a glomerular filtration rate (GFR)<59 ml/min. Some of these CKD subjects also had anemia, defined as having hemoglobin (Hb) levels<11 g/dL. Subjects were orally administered compound A or a placebo two or three times per week for four weeks. Blood pressure readings (i.e. systolic, diastolic, and mean arterial pressure) were taken at various times with a sphygmomanometer according to standard assessments. In another series of experiments, the effects of a medicament of the present invention on blood pressure in anemic and non-anemic subjects with chronic kidney disease were determined over a four week period. All subjects were orally administered compound A or a placebo two or three-times per week for four weeks and blood pressure readings were taken weekly. Table 6, Table 7, and Table 8 below show weekly changes in mean arterial pressure (MAP), systolic blood pressure (SBP), and diastolic blood pressure (DBP) following oral administration of compound A to human CKD subjects.

## Cc1nc(C(=O)NCC(=O)O)c(O)c2ccc(Oc3ccccc3)cc12 [A, [(4-hydroxy-1-methyl-7-phenoxy-isoquinoline-3-carbonyl)-amino]-acetic acid]
[1]; 20 mg/kg oral gavage three times per week
  systolic blood pressure (SBP): 164.7±26.7 mmHg
[1]; 40 mg/kg oral gavage three times per week
  systolic blood pressure (SBP): 155.4±42.9 mmHg
[2]
  SBP (mmHg) Change from Baseline: −31.10 mmHg
  SBP (mmHg) Change from Vehicle: −40.31 mmHg
[3]; All Subjects, Week 1
  Mean change from Baseline Diastolic BP (mmHg): −3.66 mmHg
  Mean change from Baseline MAP (mmHg): −4.28 mmHg
  Mean change from Baseline Systolic BP (mmHg): −5.45 mmHg
[3]; All Subjects, Week 2
  Mean change from Baseline Diastolic BP (mmHg): −3.37 mmHg
  Mean change from Baseline MAP (mmHg): −5.44 mmHg
  Mean change from Baseline Systolic BP (mmHg): −9.47 mmHg
[3]; All Subjects, Week 3
  Mean change from Baseline Diastolic BP (mmHg): −1.53 mmHg
  Mean change from Baseline MAP (mmHg): −4.03 mmHg
  Mean change from Baseline Systolic BP (mmHg): −8.97 mmHg
[3]; All Subjects, Week 4
  Mean change from Baseline Diastolic BP (mmHg): −1.54 mmHg
  Mean change from Baseline MAP (mmHg): −2.85 mmHg
  Mean change from Baseline Systolic BP (mmHg): −5.54 mmHg
[3]; Anemic, Week 1
  Mean change from Baseline Diastolic BP (mmHg): −4.43 mmHg
  Mean change from Baseline MAP (mmHg): −4.57 mmHg
  Mean change from Baseline Systolic BP (mmHg): −4.80 mmHg
[3]; Anemic, Week 2
  Mean change from Baseline Diastolic BP (mmHg): −3.77 mmHg
  Mean change from Baseline MAP (mmHg): −6.13 mmHg
  Mean change from Baseline Systolic BP (mmHg): −10.77 mmHg
[3]; Anemic, Week 3
  Mean change from Baseline Diastolic BP (mmHg): −2.50 mmHg
  Mean change from Baseline MAP (mmHg): −5.47 mmHg
  Mean change from Baseline Systolic BP (mmHg): −11.40 mmHg
[3]; Anemic, Week 4
  Mean change from Baseline Diastolic BP (mmHg): −1.13 mmHg
  Mean change from Baseline MAP (mmHg): −3.08 mmHg
  Mean change from Baseline Systolic BP (mmHg): −7.25 mmHg
[3]; Non-Anemic, Week 1
  Mean change from Baseline Diastolic BP (mmHg): −2.00 mmHg
  Mean change from Baseline MAP (mmHg): −3.67 mmHg
  Mean change from Baseline Systolic BP (mmHg): −6.86 mmHg
[3]; Non-Anemic, Week 2
  Mean change from Baseline Diastolic BP (mmHg): −2.50 mmHg
  Mean change from Baseline MAP (mmHg): −3.95 mmHg
  Mean change from Baseline Systolic BP (mmHg): −6.67 mmHg
[3]; Non-Anemic, Week 3
  Mean change from Baseline Diastolic BP (mmHg): 0.40 mmHg
  Mean change from Baseline MAP (mmHg): −1.14 mmHg
  Mean change from Baseline Systolic BP (mmHg): −4.10 mmHg
[3]; Non-Anemic, Week 4
  Mean change from Baseline Diastolic BP (mmHg): −2.20 mmHg
  Mean change from Baseline MAP (mmHg): −2.48 mmHg
  Mean change from Baseline Systolic BP (mmHg): −2.80 mmHg
